Results on two compounds are retold here after patent US20080153849A1, “Process for the Preparation of Crystalline (6Rrs)-N(5)-Formyl-5,6,7,8-Tetrahydrofolic Acid” (priority 2004, published 2008).

The data set in a line: Storage stability of the solid in a refrigerator (HPLC assay and purity). It is filed as physicochemical. To be noted: for Assay (HPLC) / Purity (HPLC): solid stored at 2° C. to 8° C. As for the experimental part: This solid was stored at a temperature from 2° C. to 8° C. in a refrigerator. Thereby the following stability dates were obtained for this solid: […]

In the case of `Nc1nc2c(c(=O)[nH]1)N(C=O)C(CNc1ccc(C(=O)N[C@@H](CCC(=O)O)C(=O)O)cc1)CN2` (mixture of isomers) [Example 1, (6RS)-N(5)-formyl-5,6,7,8-tetrahydrofolic acid], the “Assay (HPLC)” value is, setting by setting: (time 0 months) 99.4%; (time 3 months) 99.0%; (time 6 months) 99.1%; (time 9 months) 100.2%; (time 12 months) 99.9%. Besides, the “Purity (HPLC)” value came out at 99.78% (time 0 months); 99.79% (time 3 months); 99.75% (time 6 months); 99.82% (time 9 months); 99.79% (time 12 months).

Regarding `Nc1nc2c(c(=O)[nH]1)N(C=O)[C@@H](CNc1ccc(C(=O)N[C@@H](CCC(=O)O)C(=O)O)cc1)CN2` [Example 2, (6S)-N(5)-formyl-5,6,7,8-tetrahydrofolic acid], under “general statement in words”, the “Stability of the solid compared with crystalline (6RS)-folinic acid” value was “stability comparable with the crystalline (6RS)-folinic acid”. Further, the “Assay (HPLC)” value is, setting by setting: (time 0 months) 99.0%; (time 1 month) 98.5%; (time 2 months) 98.1%; (time 3 months) 98.9%; (time 6 months) 98.1%; (time 12 months) 97.8%. Further, the “Purity (HPLC)” value by setting is: (time 0 months) 99.2%; (time 1 month) 99.0%; (time 2 months) 98.9%; (time 3 months) 98.9%; (time 6 months) 98.4%; (time 12 months) 97.2%.
